Where “and” joins values, the source holds several entries; their conditions need not be identical. Identical values can stand only once. Counter-ions that a name gives are not always drawn. Like-named read-outs stand apart in the source and are kept apart here.
Legend:
[1] = biological target: T1, recombinant human AChE (Homo sapiens, UniProt P22303); assay: biochemical; assay type: biochemical; conditions: for AC50: AC50 (uM)
[2] = biological target: T1, recombinant human AChE; assay: biochemical
[3] = biological target: AChE in SH-SY5Y cells (Homo sapiens, UniProt P22303); assay: cell-based
[4] = biological target: T1, recombinant human AChE
Throughout, for IR or R: key: Reversible (R); Irreversible (IR); ND, not detected in enzyme-based AChE inhibition assay from current study.

T1 sequence (P22303 32-614): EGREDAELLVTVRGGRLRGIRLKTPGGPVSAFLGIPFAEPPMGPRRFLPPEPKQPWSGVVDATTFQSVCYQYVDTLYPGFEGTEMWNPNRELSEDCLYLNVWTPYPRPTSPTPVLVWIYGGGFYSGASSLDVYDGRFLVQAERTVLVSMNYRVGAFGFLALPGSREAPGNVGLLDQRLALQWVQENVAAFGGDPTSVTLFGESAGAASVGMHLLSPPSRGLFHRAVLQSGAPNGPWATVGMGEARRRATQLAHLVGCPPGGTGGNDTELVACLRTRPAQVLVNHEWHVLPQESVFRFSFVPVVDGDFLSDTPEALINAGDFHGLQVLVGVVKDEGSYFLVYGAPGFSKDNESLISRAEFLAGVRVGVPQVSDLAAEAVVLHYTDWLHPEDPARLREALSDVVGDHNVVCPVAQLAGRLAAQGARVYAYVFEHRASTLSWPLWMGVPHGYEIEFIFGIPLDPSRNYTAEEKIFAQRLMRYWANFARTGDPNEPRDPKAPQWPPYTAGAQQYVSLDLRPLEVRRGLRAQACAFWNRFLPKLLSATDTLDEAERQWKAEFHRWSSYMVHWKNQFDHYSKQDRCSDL
Sequence of AChE in SH-SY5Y cells (P22303 32-614): as above

Structure (SMILES) | AC50 [1] | CC-v2 (curve classes) [2] | Efficacy [2] | CC-v2 (curve classes) [3] | IR or R [1] | CC-v2 (curve classes) [4] | Efficacy [4] | reversibility of AChE inhibition (result in words) [1] | IC50 ([2]; read-out: IC50) [µM] | IC50 ([3]; read-out: IC50) | IC50 ([2]; IC50 (uM)) [µM] | IC50 ([3]; IC50 (uM)) | Efficacy [1]
CNC(=O)Oc1cccc(N=CN(C)C)c1 [Formetanate hydrochloride] | 63.1 µM and 56.2 µM (2×) and 50.1 µM and 70.7 µM and 44.6 µM and 39.8 µM |  |  |  |  |  |  |  |  |  |  |  | 
Nc1c2c(nc3ccccc13)CCCC2O.O=C(O)/C=C\C(=O)O (stereo not drawn) [Hydroxytacrine maleate, reference compound] |  | -1.1 | -95.079 | -1.1 | R | -2.1 | -93.06 |  |  |  |  |  | 
COc1cc2nc(N(C)CCCNC(=O)C3CCCO3)nc(N)c2cc1OC (stereo not drawn) [Alfuzosin hydrochloride, reference compound] | 14.7 µM (3×) and 13.1 µM and 7.35 µM and 9.25 µM and 10.4 µM (2×) |  |  |  |  |  |  |  |  |  |  |  | 
CCC1(c2cccc(O)c2)CCCCN(C)C1 (stereo not drawn) [Meptazinol hydrochloride, reference compound] | 4.64 µM and 9.25 µM and 3.68 µM and 5.2 µM and 8.25 µM and 5.84 µM and 6.55 µM |  |  |  |  |  |  |  |  |  |  |  | 
O=C(CCC1CCN(Cc2ccccc2)CC1)c1ccc2c(c1)NCCCC2.O=C(O)/C=C/C(=O)O [Zanapezil fumerate, reference compound] |  | -1.1 | -97.056 | -1.1 | R | -1.1 | -97.158 |  |  |  |  |  | 
CNC(=O)Oc1cccc2ccccc12 [carbaryl] |  |  |  |  |  |  |  | significant IC50 difference at 60 min |  |  |  |  | 
Cc1ccc2c(c1)OCC(=O)CO2 [7-Methyl-2H-1,5-benzodioxepin-3(4H)-one] |  | -2.2 | -48.628 | -2.1 |  | 4 | 0 |  | 79.6 | 35.6 µM and 31.7 µM |  |  | 
Cc1ccc(CCn2c3c(c4cc(Cl)ccc42)CN(C)CC3)cn1 [Dorastine] |  | -2.4 | -32.475 |  |  | 4 | -6.925 |  |  |  | 38.9 | 34.7 µM and 30.9 µM | 
N#Cc1sc2c(=O)c3ccccc3c(=O)c=2sc1C#N [Dithianon] |  | 4 | -13.233 | -2.1 |  | 4 | 0 |  |  |  |  | 44.8 µM and 63.3 µM | 
CN(C)C(=S)SSC(=S)N(C)C [Thiram] |  | 4 |  |  |  | 4 |  |  |  |  |  | 38.9 µM and 88.1 µM and 78.5 µM and 89.4 µM and 71 µM | 
O=C(C[S+]([O-])Cc1ccco1)NC/C=C\COc1cc(CN2CCCCC2)ccn1 (stereo not drawn) [Lafutidine] |  | -2.2 | -35.592 | -2.1 |  | 4 | 0 |  |  |  | 34.7 | 38.9 µM and 27.5 µM and 17.4 µM | 
CNP(=O)(OC)Oc1ccc(C(C)(C)C)cc1Cl (stereo not drawn) [Crufomate] |  | -2.2 | -70.92 | -2.1 |  | 4 | -16.11 |  |  |  | 79.6 | 71 µM and 39.9 µM and 63.3 µM | 
COc1cc2c(N3CCN(C(=O)Nc4ccc(OC(C)C)cc4)CC3)ncnc2cc1OCCCN1CCCCC1 [Tandutinib, reference compound] |  | -2.1 | -82.501 | -2.1 | R | 4 | -26.796 |  |  |  |  |  | -90.305
CN(CCOc1ccc(NS(C)(=O)=O)cc1)CCc1ccc(NS(C)(=O)=O)cc1 [Dofetilide] |  |  | -14.56 |  |  |  | 0 |  |  |  |  | 17.4 µM | 
CCCCOc1ccc(C(=O)CCN2CCCCC2)cc1 [Dyclonine hydrochloride] |  | -2.2 | -57.155 | -2.1 |  | 4 | 0 |  |  |  | 27.5 | 12.3 µM and 13.8 µM | 
O=S1OC[C@@H]2[C@H](CO1)[C@]1(Cl)C(Cl)=C(Cl)[C@@]2(Cl)C1(Cl)Cl (stereo partly drawn) [Endosulfan I] |  | -1.1 | -101.477 | -1.1 |  | -3 | -117.846 |  |  |  |  |  | 
CCCN[C@H]1CCc2nc(N)sc2C1 [Pramipexole dihydrochloride monohydrate] |  | 4 | -20.242 | -2.1 |  | 4 | -16.414 |  |  |  |  |  | 
O=C1c2c(O)ccc(Nc3ccc(CCO)cc3)c2C(=O)c2c([N+](=O)[O-])ccc(O)c21 [C.I. Disperse Blue 27] |  | -1.2 | -62.368 | -1.1 |  | 4 | 0 |  | 20 | 8.94 µM and 10 µM |  |  | 
CC(C)Nc1nc(Cl)nc(NC(C)C)n1 [Propazine] |  | -2.2 and 4 |  | -2.1 and 4 |  | 4 | 0 |  |  |  | 71 | 31.7 µM and 25.2 µM and 28.3 µM | 
COP(=O)(OC)Oc1ccc([N+](=O)[O-])cc1 [Methylparaoxon] |  | -1.1 | -92.551 | -1.1 |  | -2.1 | -96.544 |  |  |  |  |  | 
Cc1ccc(S(=O)(=O)Oc2ccc(N=Nc3ccc(-c4ccc(N=Nc5c(O)ccc6cc(S(=O)(=O)[O-])cc(S(=O)(=O)[O-])c56)c(C)c4)cc3C)cc2)cc1.[Na+].[Na+] [C.I. Acid Red 114] |  | -1.1 |  | 4 |  | 4 | 22.5 and 26.805 |  |  |  |  |  | 
Cc1nc2ccccn2c(=O)c1CCN1CCC(C(=O)c2ccc(F)cc2)CC1 [Pirenperone] |  | -2.4 | -31.06 | -2.1 |  | 4 | 0 |  |  |  | 38.9 | 17.4 µM and 24.5 µM | 
CC(C)C[C@H]1C(=O)N2CCC[C@H]2[C@]2(O)O[C@](NC(=O)[C@@H]3C=C4c5cccc6[nH]c(Br)c(c56)C[C@H]4N(C)C3)(C(C)C)C(=O)N12 [Bromocriptine mesylate] |  | -1.1 | -70.597 | -1.1 |  | 4 | 0 |  |  |  |  | 5.38 µM and 2.7 µM | 
CCOP(=O)(OCC)OC(=CCl)c1ccc(Cl)cc1Cl [Chlorfenvinphos] |  | -1.1 | -95.584 | -1.1 |  | -1.1 | -96.159 |  |  |  |  |  | 
CCOP(=O)(OCC)Oc1nc(Cl)c(Cl)cc1Cl [Chlorpyrifos oxon, reference compound] |  | -1.1 | -95.546 | -1.1 |  | -1.1 | -96.78 | irreversibility |  |  |  |  | 
CCN(CC)CCNC(=O)c1c(C)[nH]c(/C=C2\C(=O)Nc3ccc(F)cc32)c1C [Sunitinib malate, reference compound] |  | -1.1 | -78.177 | -1.1 | R | -2.2 | -53.539 |  |  |  |  |  | 
Nc1c(NC/C=C\COc2cc(CN3CCCCC3)ccn2)c(=O)c1=O [Pibutidine] |  | -2.2 | -32.846 | -2.1 |  | 4 | 0 |  |  |  | 15.1 | 13.5 µM and 15.1 µM | 
CCCCCCCCCC[N+](C)(CCCCCCCCCC)CCC[Si](OC)(OC)OC.[Cl-] [Disiquonium chloride] |  | -3 | -65.382 | 4 |  | 4 | 0 |  | 79.6 |  |  |  | 

Source: publication PMC8041433 (Environmental Health Perspectives, 2021)
